In brackets after ≈: the same amount, converted by molar mass.
Legend:
Format in all cases: functional
[1] = test system: Desulfovibrio fairfieldensis; assay: Antimicrobial activity against Desulfovibrio fairfieldensis by Etest method
[2] = test system: Desulfovibrio desulfuricans; assay: Antimicrobial activity against Desulfovibrio desulfuricans MB by Etest method
Desulfovibrio sp. [3] = assay: Antimicrobial activity against Desulfovibrio sp. by Etest method
Desulfovibrio piger [4] = assay: Antimicrobial activity against Desulfovibrio piger by Etest method
[5] = test system: Desulfovibrio desulfuricans; assay: Antimicrobial activity against Desulfovibrio desulfuricans Essex 6 by Etest method
Desulfovibrio piger [6] = assay: Antimicrobial activity against Desulfovibrio piger in presence of Sulbactam by Etest method
[7] = test system: Desulfovibrio desulfuricans; assay: Antimicrobial activity against Desulfovibrio desulfuricans MB in presence of Sulbactam by Etest method
Desulfovibrio sp. [8] = assay: Antimicrobial activity against Desulfovibrio sp. in presence of Sulbactam by Etest method
[9] = test system: Desulfovibrio desulfuricans; assay: Antimicrobial activity against Desulfovibrio desulfuricans Essex 6 in presence of Sulbactam by Etest method
[10] = test system: Desulfovibrio fairfieldensis; assay: Antimicrobial activity against Desulfovibrio fairfieldensis in presence of Sulbactam by Etest method
Desulfovibrio piger [11] = assay: Antimicrobial activity against Desulfovibrio piger in presence of Tazobactam by Etest method
[12] = test system: Desulfovibrio desulfuricans; assay: Antimicrobial activity against Desulfovibrio desulfuricans Essex 6 in presence of Tazobactam by Etest method
Desulfovibrio sp. [13] = assay: Antimicrobial activity against Desulfovibrio sp. in presence of Tazobactam by Etest method
[14] = test system: Desulfovibrio desulfuricans; assay: Antimicrobial activity against Desulfovibrio desulfuricans MB in presence of Tazobactam by Etest method
[15] = test system: Desulfovibrio fairfieldensis; assay: Antimicrobial activity against Desulfovibrio fairfieldensis in presence of Tazobactam by Etest method

SMILES	MIC [1] [mg/L]	MIC [2] [mg/L]	MIC50 (Desulfovibrio sp. [3]) [mg/L]	MIC90 (Desulfovibrio sp. [3]) [mg/L]	MIC (Desulfovibrio piger [4]) [mg/L]	MIC [5] [mg/L]	MIC (Desulfovibrio piger [6]) [mg/L]	MIC [7] [mg/L]	MIC50 (Desulfovibrio sp. [8]) [mg/L]	MIC90 (Desulfovibrio sp. [8]) [mg/L]	MIC [9] [mg/L]	MIC [10] [mg/L]	MIC (Desulfovibrio sp. [8]) [mg/L]	MIC (Desulfovibrio sp. [3]) [mg/L]	MIC (Desulfovibrio piger [11]) [mg/L]	MIC [12] [mg/L]	MIC50 (Desulfovibrio sp. [13]) [mg/L]	MIC90 (Desulfovibrio sp. [13]) [mg/L]	MIC [14] [mg/L]	MIC [15] [mg/L]
CC(=O)OCC1=C(C(=O)O)N2C(=O)[C@@H](NC(=O)Cc3cccs3)[C@H]2SC1 [CEPHALOTHIN]	> 256	2 (≈ 5.04 µM)	> 256	> 256	> 96	> 3	–	–	–	–	–	–	–	–	–	–	–	–	–	–
C[C@H]1COc2c(N3CCN(C)CC3)c(F)cc3c(=O)c(C(=O)O)cn1c23.C[C@H]1COc2c(N3CCN(C)CC3)c(F)cc3c(=O)c(C(=O)O)cn1c23.O [LEVOFLOXACIN]	> 32	0.25	0.75	> 32	0.095	0.25	–	–	–	–	–	–	–	–	–	–	–	–	–	–
CO[C@@]1(NC(=O)Cc2cccs2)C(=O)N2C(C(=O)O)=C(COC(N)=O)CS[C@@H]21 [CEFOXITIN]	> 64	> 16	> 256	> 256	16 (≈ 37.4 µM)	> 256	–	–	–	–	–	–	–	–	–	–	–	–	–	–
CC(C)(O/N=C(\C(=O)N[C@@H]1C(=O)N2C(C(=O)[O-])=C(C[n+]3ccccc3)CS[C@H]12)c1csc(N)n1)C(=O)O [CEFTAZIDIME]	> 256	2 (≈ 3.66 µM)	6 (≈ 11 µM)	> 256	3 (≈ 5.49 µM)	> 3	–	–	–	–	–	–	–	–	–	–	–	–	–	–
CCN1CCN(C(=O)N[C@@H](C(=O)N[C@@H]2C(=O)N3C(C(=O)O)=C(CSc4nnnn4C)CS[C@H]23)c2ccc(O)cc2)C(=O)C1=O [CEFOPERAZONE]	> 256	12 (≈ 18.6 µM)	> 256	> 256	12 (≈ 18.6 µM)	> 16	1	1	4	> 256	> 3	> 24	–	–	–	–	–	–	–	–
CO/N=C(\C(=O)N[C@@H]1C(=O)N2C(C(=O)[O-])=C(C[n+]3cccc4c3CCC4)CS[C@H]12)c1csc(N)n1 [CEFPIROME]	> 256	0.5 (≈ 0.972 µM)	4 (≈ 7.77 µM)	> 256	0.75 (≈ 1.46 µM)	0.5 (≈ 0.972 µM)	–	–	–	–	–	–	–	–	–	–	–	–	–	–
CC1(C)S[C@@H]2[C@H](NC(=O)[C@H](N)c3ccccc3)C(=O)N2[C@H]1C(=O)O [AMPICILLIN]	4 (≈ 11.4 µM)	0.19 (≈ 0.544 µM)	0.75 (≈ 2.15 µM)	8 (≈ 22.9 µM)	12 (≈ 34.3 µM)	0.19 (≈ 0.544 µM)	0.5	0.064	0.38	6	0.125	4	0.06	–	–	–	–	–	–	–
O=C(O)c1cn(C2CC2)c2cc(N3CCNCC3)c(F)cc2c1=O [CIPROFLOXACIN]	> 32	0.125 (≈ 0.377 µM)	0.5 (≈ 1.51 µM)	> 32	0.125 (≈ 0.377 µM)	0.19 (≈ 0.573 µM)	–	–	–	–	–	–	–	–	–	–	–	–	–	–
CO/N=C(\C(=O)N[C@@H]1C(=O)N2C(C(=O)O)=C(COC(C)=O)CS[C@H]12)c1csc(N)n1 [CEFOTAXIME]	> 0.047	0.5 (≈ 1.1 µM)	1.5 (≈ 3.29 µM)	> 256	1 (≈ 2.2 µM)	0.047 (≈ 0.103 µM)	–	–	–	–	–	–	–	–	–	–	–	–	–	–
CCN1CCN(C(=O)N[C@@H](C(=O)N[C@@H]2C(=O)N3[C@@H]2SC(C)(C)[C@@H]3C(=O)O)c2ccccc2)C(=O)C1=O [PIPERACILLIN]	> 256	> 32	> 256	> 256	> 256	> 256	–	–	–	–	–	–	–	–	> 256	> 16	> 256	> 256	32	> 256

Continued by falling MIC [1], values first:

MIC [1] [mg/L]	MIC [2] [mg/L]	MIC50 (Desulfovibrio sp. [3]) [mg/L]	MIC90 (Desulfovibrio sp. [3]) [mg/L]	MIC (Desulfovibrio piger [4]) [mg/L]	MIC [5] [mg/L]	MIC (Desulfovibrio piger [6]) [mg/L]	MIC [7] [mg/L]	MIC50 (Desulfovibrio sp. [8]) [mg/L]	MIC90 (Desulfovibrio sp. [8]) [mg/L]	MIC [9] [mg/L]	MIC [10] [mg/L]	MIC (Desulfovibrio sp. [8]) [mg/L]	MIC (Desulfovibrio sp. [3]) [mg/L]	MIC (Desulfovibrio piger [11]) [mg/L]	MIC [12] [mg/L]	MIC50 (Desulfovibrio sp. [13]) [mg/L]	MIC90 (Desulfovibrio sp. [13]) [mg/L]	MIC [14] [mg/L]	MIC [15] [mg/L]	SMILES
4 (≈ 8.74 µM)	3 (≈ 6.56 µM)	6 (≈ 13.1 µM)	24 (≈ 52.5 µM)	0.19 (≈ 0.415 µM)	2 (≈ 4.37 µM)	–	–	–	–	–	–	–	–	–	–	–	–	–	–	CN(C)c1ccc(O)c2c1C[C@H]1C[C@H]3[C@H](N(C)C)C(O)=C(C(N)=O)C(=O)[C@@]3(O)C(O)=C1C2=O [MINOCYCLINE]
3 (≈ 9.28 µM)	1.5 (≈ 4.64 µM)	4 (≈ 12.4 µM)	8 (≈ 24.8 µM)	1.5 (≈ 4.64 µM)	1.5 (≈ 4.64 µM)	–	–	–	–	–	–	–	1.5 (≈ 4.64 µM)	–	–	–	–	–	–	O=C(N[C@H](CO)[C@H](O)c1ccc([N+](=O)[O-])cc1)C(Cl)Cl [CHLORAMPHENICOL]
2 (≈ 5.22 µM)	0.023 (≈ 0.06 µM)	0.19 (≈ 0.495 µM)	4 (≈ 10.4 µM)	0.032 (≈ 0.0834 µM)	0.064 (≈ 0.167 µM)	–	–	–	–	–	–	–	–	–	–	–	–	–	–	C[C@@H](O)[C@H]1C(=O)N2C(C(=O)O)=C(S[C@@H]3CN[C@H](C(=O)N(C)C)C3)[C@H](C)[C@H]12 [MEROPENEM]
0.5 (≈ 0.681 µM)	0.38 (≈ 0.518 µM)	0.5 (≈ 0.681 µM)	1.5 (≈ 2.04 µM)	0.016 (≈ 0.0218 µM)	0.38 (≈ 0.518 µM)	–	–	–	–	–	–	–	–	–	–	–	–	–	–	CC[C@H]1OC(=O)[C@H](C)[C@@H](O[C@H]2C[C@@](C)(OC)[C@@H](O)[C@H](C)O2)[C@H](C)[C@@H](O[C@@H]2O[C@H](C)C[C@H](N(C)C)[C@H]2O)[C@](C)(O)C[C@@H](C)C(=O)[C@H](C)[C@@H](O)[C@]1(C)O [ERYTHROMYCIN]
0.032 (≈ 0.0753 µM)	0.094 (≈ 0.221 µM)	0.125 (≈ 0.294 µM)	0.19 (≈ 0.447 µM)	0.016 (≈ 0.0376 µM)	0.094 (≈ 0.221 µM)	–	–	–	–	–	–	–	–	–	–	–	–	–	–	CCC[C@@H]1C[C@@H](C(=O)N[C@@H]([C@H]2O[C@H](SC)[C@H](O)[C@@H](O)[C@H]2O)[C@H](C)Cl)N(C)C1 [CLINDAMYCIN]
0.016 (≈ 0.0935 µM)	0.016 (≈ 0.0935 µM)	0.125 (≈ 0.73 µM)	0.25 (≈ 1.46 µM)	0.032 (≈ 0.187 µM)	0.064 (≈ 0.374 µM)	–	–	–	–	–	–	–	–	–	–	–	–	–	–	Cc1ncc([N+](=O)[O-])n1CCO [METRONIDAZOLE]

Reference: ChEMBL document CHEMBL1649294, “Susceptibilities of 23 Desulfovibrio isolates from humans” (2009)
